Common to all, as to assay type: cell-based
Experiment [1] in a line: Colony forming assay for compound 2 and 38 (treatment and 5 days recovery). The conditions noted are these: treatment and recovery (5 days).
Experiment [2] relates to CTGF and CYR61 transcripts. Description: RT-qPCR of Hippo-dependent gene transcripts in A549. The method, then:
(§1) MGH-CP1 (positive control) and Cpd 13 were tested on MCF10 and A549.
A general note: Real-time PCR tracks product formation cycle by cycle.

For experiment [3], the system named is hippo signaling target proteins (TEAD4, Pan-TEADs, YAP, TAZ). The experiment in a line: Immunoblotting of hippo signaling target proteins in A549 whole cell lysates. The conditions noted are these: A549 cells, 24 hrs. The method, then:
Method: A549 cells (at 60% confluency) either mock treated or treated with indicated doses of CPD10 and CPD13 for 24 hrs. Cells were washed with ice-cold 1×PBS and lysed in protein lysis buffer. Whole cell lysates were quantified by Pierce™ BCA Protein assay kit (Catalog number: 23225) and denatured in 4×LDS buffer (Thermo catalog number: NP0007) added with competing amount of DTT followed by boiling for 3 minutes. Samples were resolved in 8% of SDS-PAGE, transferred onto nitrocellulose membrane and immunoblotting was performed with indicated antibodies.
Result: To determine the CPD10 and CPD13 mediated expression of hippo signaling target proteins in A549 cells, whole cell lysates from mock treated and compounds treated cells were immunoblotted to determine the level of TEAD4, Pan-TEADs, YAP, TAZ proteins. […] Similar to CPD10, CPD13 downregulate YAP expression at 10 Um (B). To determine the level of other transcriptional targets, we tested the p53 protein in same sets of protein samples. […] GAPDH was used as loading control.
(In general: Immunoblotting shows a protein as a band on a membrane.)

The test system of experiment [4] is TEADs transcriptional target genes. The experiment in a line: RT PCR transcriptional profiling of TEADs target genes in A549 cells. The method, then:
Method: A549 cells (at 60% confluency) either mock treated or treated with indicated doses of CPD 10 and CPD13 for 24 hrs. Cells were washed with ice-cold 1×PBS. RNA extraction was performed with Quick-RNA™ miniprep kit (Zymo Research, Cat. No. R1055), strictly according to manufacturer's instructions. Nanodrop quantified 2 μg of RNA samples were used for cDNA synthesis with cDNA Reverse Transcription Kit (Thermo Cat. No. 4368814) strictly according to the manufacturer's instructions. In RT PCR experiment, comparative target gene expression was performed by SYBR™ Green (Thermo Cat. No. 4309155) Master mix. Relative target gene expressions were compared and plotted on Y-Axis.
Result: Relative expression of YAP and TAZ in response to low dose of CPD10 (A) and CPD13 (B) treatment in A549 cells. c-MYC was included as non-transcriptional target of the TEADs. NFKB1 was included as its expression is reciprocal to the YAP/TAZ. Downstream effectors of the TEADs targets (CYR61, AXL, CTGF and ANKRD1) were determined in responses to 2.5, 5 and 10 μM of CPD10 (C) and CPD13 (D).
CPD10 and CPD13 Downregulate the TEADs transcriptional target genes: To determine CPD10 and CPD13 induced relative expression of TEADs target genes, A549 cells were treated with indicated doses for 24 hrs. Transcriptional profiling was performed with respective primer pairs. […] Further we tested the expression of one of the strong non hippo transcription factor, the C-Myc. As expected, c-MYC expression was not affected in response to CPD10 treatment (A). […] C-Myc expression was not affected. […] An Increase of NFKB1 expression is consistent with significant downregulation of YAP expression in response to CPD13 treatment (B). To determine the state of TEADs transcriptional target genes at higher concentrations, A549 cells were treated with indicated doses of compounds and analyzed for the expression of CYR61, AXL, CTGF and ANKRD1.

The next experiment deals with T1, GFP-TEAD4 (Homo sapiens, UniProt Q15561).
T1 construct: expressed in transfected cells
The experiment in a line: TEAD4 localization imaging in U20S cells stably expressing GFP-TEAD4. The conditions noted are these: 10 μM, 18 hrs. How it is done:
Methods: U20S cells stably expressing GFP-TEAD4 were seeded at 50,000 cell densities onto glass cover slips in six well plates. Next day, cells were either DMSO treated or treated with indicated compounds at 10 μM concentrations. After 18 hrs of treatment cells were washed and fixed in 4% formaldehyde for 20 minutes. Blocking was done in 3% BSA dissolved in PBST for 1 hour. Cell were incubated with indicated antibodies for overnight in a cold room. Next day, after washing 3× in PBST samples were incubated with respective secondary antibodies for 45 minutes at room temperature. After washing nuclear staining was done with DAPI for 10 minutes. Coverslips were added onto glass slides with the help of mounting medium. After drying, cells were imaged at 63× objective and processed with ZEN x64 blue software.
Result: In DMSO treated control samples we observed very nuclear localized TEAD4 (green) signal, strongly imposed to the DAPI signal. Nuclear and cytoplasmic YAP and TAZ was observed either in DMSO or in compound treated cells.

A further experiment has as its target T2, YAP-TEAD binding (Homo sapiens, UniProt Q15561).
T2 construct: Endogenous TEAD4 IP; endogenous in cells; host or cells: NCI-H226 mesothelioma cells
Description: Endogenous TEAD4 immunoprecipitation in NCI-H226 mesothelioma cells. The note with it: 24 hrs, indicated concentrations. The method, then: Evaluation of CPD10 and CPD13 in NCI-H226 mesothelioma cell line: Actively growing cells were either DMSO added or treated with indicated concentrations of CPD10 and CPD13 for 24 hrs. Cells were collected in ice-cold PBS and pellets were lysed in IP Lysis Buffer (25 mM Tris-HCl pH 7.4, 150 mM NaCl, 1 mM EDTA, 1% NP-40 and 5% glycerol and competing amount of protease inhibitor). Samples were lysed by sonication, BCA assay was performed and equal concentration of protein were added with TEAD4 antibody (3 ul). After overnight incubation in cold room, samples were added with anti-rabbit magnetic beads to trap the TEAD and binding complex for 2 hrs. Samples were washed 3 times and bound fraction were collected with the help of magnetic stand. Samples were added with 4×LDS, competing amount of DTT, and boiled for 3 minutes. Whole cell lysate (Input) and IP samples were resolved in 8% SDS-PAGE gel and immunoblotted with indicated antibodies.
(§2) Relative quantification of immunoblot signals were quantified with IMAGE J software. Actively growing cells were added with indicated concentrations of CPD10 and CPD13 and cells were collected after 24 hrs. RNA was extracted and cDNA was synthesized. Indicated primer pairs were used for RT-PCR. Relative gene expression was determined by using GAPDH amplification.

The test system of experiment [5] is TEAD transcriptional target genes. Description: RT-PCR profiling of YAP-TEAD transcriptional target genes in NCI-H226 cells. The note with it: 24 hrs. How it is done: as §2
The test system of a further experiment is U20S cells. The experiment in a line: Colony forming assay in U20S cells depleted of or overexpressing TEAD4. The method, then:
(§3) In colony forming assay, indicated cells were plated at 5,000 cells density in 2 ml of DMEM medium. TEAD4 depletion was performed by reverse transfection with 20 nM of Dharmacon smart pool NTsiRNA and TEAD4 siRNA in 2.5 ul of lipofectamine mixed with 25% of OPTIMEM. After 18 hrs of transfection, cells were either DMSO treated or treated with indicated compounds at different doses. After 48 hrs of the treatment cells were recovered in a fresh medium for 4 days. At the end of the experiment cells were Glutaraldehyde fixed and stained in crystal violet solution for 2 hrs. After washing, plates were scanned for image processing.
In line with proliferation assay we performed colony forming assay in U20S cells either depleted or overexpressing TEAD4. Cells stably expressing GFP and GFP fused TEAD4 were also included in this assay.

The subject of experiment [6] is CTGF and CYR61 transcripts. Description: RT-qPCR of Hippo-dependent gene transcripts in MCF10. How it is done:
as §1

The test system of experiment [7] is NCI-H226 mesothelioma cells. The experiment in a line: Colony forming assay in NCI-H226 mesothelioma cells. How it is done: as §3
Colony forming assay was essentially performed as described in previous section.

T1 sequence (Q15561 whole entry): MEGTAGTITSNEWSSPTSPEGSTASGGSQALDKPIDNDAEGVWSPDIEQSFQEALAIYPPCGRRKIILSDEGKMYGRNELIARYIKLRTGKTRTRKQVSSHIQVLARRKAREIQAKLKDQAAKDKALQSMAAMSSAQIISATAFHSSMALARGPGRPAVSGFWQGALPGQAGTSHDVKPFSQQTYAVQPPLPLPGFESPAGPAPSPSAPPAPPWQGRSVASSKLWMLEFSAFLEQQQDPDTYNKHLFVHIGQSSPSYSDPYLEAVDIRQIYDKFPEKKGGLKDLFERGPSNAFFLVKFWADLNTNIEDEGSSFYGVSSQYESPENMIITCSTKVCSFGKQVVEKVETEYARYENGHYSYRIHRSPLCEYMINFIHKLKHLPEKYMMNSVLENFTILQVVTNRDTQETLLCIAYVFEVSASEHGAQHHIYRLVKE
T2 sequence (Q15561 whole entry): as above

Take `C=CS(=O)(=O)CCC(=O)Nc1cc(-c2ccccc2)cnc1C` [CPD2]: the “TEAD dependence of induced cell sensitivity (colony forming assay)” value in [1] is reported as “not TEAD dependent”.

`C=CS(=O)(=O)CCC(=O)Nc1nc(C2CCCCC2)c(C)s1` [CPD13]: the “CTGF and CYR61 transcripts (RT-qPCR)” value in [2] is given as “dose dependent decrease”. For the same compound, the “YAP expression (immunoblot)” value in experiment [3] (10 Um) was “downregulate”. Also, the “wild type p53 expression (immunoblot)” value in experiment [3] (same protein samples) was “didn't resulted in change”. Moreover, in experiment [4] (24 hrs, 2.5, 5 and 10 μM), the “ANKRD1 relative expression (RT PCR)” value is listed as “further downregulated in a dose dependent manner”, the “AXL relative expression (RT PCR)” value is reported as “further downregulated in a dose dependent manner”, the “CTGF relative expression (RT PCR)” value is “further downregulated in a dose dependent manner” and the “CYR61 relative expression (RT PCR)” value was “further downregulated in a dose dependent manner”. Besides, in experiment [4] (24 hrs, low dose), the “NFKB1 relative expression (RT PCR)” value is listed as “Increase” and the “c-MYC relative expression (RT PCR)” value was “not affected”. For the same compound, the “YAP/TAZ relative expression (RT PCR)” value in experiment [4] (24 hrs, low dose (2.5 μM of CPD10)) is recorded as “significant reduction”. Moreover, at GFP-TEAD4, the “cytoplasmic localization of the TEAD4 protein” value is recorded as “induction of cytoplasmic localization” and the “nuclear TEAD4 presence” value was “didn't diminish”. In addition, on YAP-TEAD binding, the “YAP-TEAD binding (TEAD4 IP, immunoblot)” value is “disrupted to a great extent”. Further, the “TEAD transcriptional target genes expression (RT-PCR)” value in experiment [5] is “repression”. Moreover, the colony forming sensitivity result in the experiment with U20S cells (TEAD4 depleted cells, unlike control siRNA treated cells) is on record as “less sensitive”. For the same compound, in the experiment with U20S cells (U20S cells, control siRNA vs TEAD4 siRNA), the “TEAD4 dependence of cellular sensitivity (siRNA depletion, colony forming)” value was “TEAD4 dependent”. Besides, the “CTGF and CYR61 transcripts (RT-qPCR)” value in [6] was “dose dependent decrease”. Moreover, the colony forming sensitivity entry in experiment [7] is listed as “strongly sensitizes”.

`C=CS(=O)(=O)CCC(=O)Nc1cnn(-c2ccccc2)n1` [CPD38]: the “TEAD dependence of induced cell sensitivity (colony forming assay)” value in experiment [1] is “not TEAD dependent”.

The record behind these values is patent US20250197355A1, “TEAD Targeting Compounds and Methods Thereof” (Agency for Science, Technology and Research, priority 2022, published 2025).
